For 90 compounds, melting point results are on record in a melting point compilation (Tetko et al.; mined from patent text by program, amines drawn as free bases though some values may be those of a salt).

Compound `CC(C)(C)C(CO)NC(=O)C(CC(=O)O)N1C=CN(c2ccc(-c3ccccc3)cc2)C1` (mixture of isomers) displayed a melting point of 145 to 150 °C.

As for `CCCCc1nc(Cl)c(CC(=O)O)c(Cc2ccc(-c3ccccc3-c3nnn[nH]3)cc2)n1`, the melting point was 180 °C. Compound `O=C1N=C(N2CCOCC2)SC1=Cc1cc(-c2ccc(O)c(C34CC5CC(CC(C5)C3)C4)c2)ccc1O` had a melting point of 325 to 330 °C. The value for `CCc1nn(C(=O)CCCN2CCOCC2)c(CC)c1CCCCCCOc1ccc(OC)cc1Cl` was 93 to 95 °C. The value for `CCc1cc(O)cc2cc(-c3ccc(O)cc3)oc12` was 218 to 220 °C. To `CSc1ncnn1C[C@]1(c2ccc(F)cc2F)O[C@@H]1c1ccccc1Cl` (relative stereo) belongs 116 to 117 °C; to `CC(C)(C)OC(=O)n1ccc2c([N+](=O)[O-])c(NC(=O)COCc3ccccc3)ccc21`, 145 to 146 °C. In turn, `O=C(Nc1ccccc1)Nc1ccc(Cc2ccc(NC3=NCCN3)cc2)cc1` showed a melting point of 167 to 170 °C.

Compound `NC(=O)c1ncn2c(-c3ccccc3)ccnc12` had a melting point of 226 to 228 °C.

`CN1CC=C(SC(c2cccc(Br)c2)c2nc3ccccc3[nH]2)CC1` (stereo not given): the melting point stood at 189 °C. In turn, `CC(=O)N(C#N)C1(c2ccc(OCc3ccc4ccccc4n3)cc2)CCCC1` displayed a melting point of 90 °C. To `O=C(O)C(OCc1ccc(Cl)cc1)(C(F)(F)F)C(F)(F)F` belongs 98 to 99 °C; to `CCOC(=O)c1ccc(CC(C)NCC(O)c2ccc(O)c(CO)c2)cc1` (stereo not given), 92 to 96 °C. Turning to `CS(=O)(=O)c1ccc(-c2cc(C(F)(F)F)cnc2C(=O)c2ccccc2)cc1`, the melting point lay within 141 to 142 °C. Consider `COC(c1ccccc1Cl)c1cc(Cl)ccc1-c1c(C(=O)O)cnn1C` (stereo not given), for which the melting point is 210 to 213 °C.

With `Cc1ccc(Nc2nc(CO)cs2)c(O)c1`, the melting point fell in the range of 188 to 190 °C.

Take `O=C1CC2(CCCC2)C(=O)N1c1ccncc1`: the melting point lay in the range of 100 to 103 °C. To `O=C1N=C(N2CCOCC2)SC1Cc1cccc(-c2ccc(O)c(C3CCCCC3)c2)c1` (stereo not given) belongs 100 to 108 °C.

`COC(=O)c1cc(-c2ccc3c(c2)c2cc(-c4ccc(Cl)cc4Cl)c(=O)n(C)c2n3C)[nH]n1`: the melting point lay within 290 to 292 °C.

`CC(=O)Nc1ccc2c(c1)Cc1cc(=O)[nH]nc1-2` gave a melting point above 300 °C. Compound `c1ccc(N(c2ccccc2)c2cccc3cc(-c4nc5ccccc5s4)ccc23)cc1` returned a melting point of 186 to 187 °C. To `O=C(O)C(=O)N1CCC(Cc2ccccc2)CC1` belongs 109 to 112 °C. To `CCn1ncc2c1ncc1c(OCCC(C)C)nc3cc(C)nn3c12` belongs 60 to 62 °C; to `COCC(=O)N1c2ccc(N3C[C@H](CNC(C)=O)OC3=O)cc2C[C@H]1C`, 174 to 175 °C; to `C#Cc1cccc(N2C(=O)C=CC2=O)c1`, 129 to 131 °C. To `COc1cc(-c2nc3ccc(OCCN(C(C)C)C(C)C)cc3n2Cc2ccccc2)cc(OC)c1OC` belongs 101 °C. In turn, `NC(=S)Nc1cc(F)ccc1-c1ccccc1` had a melting point of 185 to 187 °C.

Compound `Oc1ccc2c(c1)CCCC(c1ccccc1)=C2c1ccc(OCCCCCCSCCCC(F)(F)C(F)(F)F)cc1` displayed a melting point of 166 °C. The value for `CN1C(=O)C=C(c2ccc3c(c2)OCO3)C1=O` was 210 to 215 °C; that for `Cc1c(NC(=O)c2ccc(-c3ccc(F)cc3)cc2)ccc2cc(C(C)N3CCCCC3)cnc12` (stereo not given) was 168 to 170 °C.

With `CC(C)N(Cc1ccccc1)c1ncnc2nc[nH]c12`, the melting point was in the range of 200 to 202 °C. The value for `Cc1cc(CO)nc(Nc2ccccc2)n1` was 118 to 120 °C; that for `CCCCc1ncc(C=C2C(=O)N(C)c3ccccc32)n1Cc1ccc(C(=O)O)cc1` was 185 to 188 °C; that for `CC1(C)CC(NC(=O)NC23CC4CC(CC(C4)C2)C3)CC(C)(C)C1=O` was 234 to 238 °C. Compound `COc1cc(CNc2nc(C)nc(C)c2Cl)ccc1Oc1ccc2ncc([N+](=O)[O-])n2n1` gave a melting point of 229 to 232 °C. The value for `CNc1ccccc1C(=O)c1ccccc1` was 66 to 68 °C; that for `O=C(NC1CCCC1)N1CCc2[nH]cnc2C1` was 225 °C; that for `Cc1ccc(SC(C#N)c2cccc(C(=O)c3ccccc3)c2)cc1` (stereo not given) was 79 to 79.5 °C. The value for `COC(=O)C1=C(O)CCc2ccc(OC)cc21` was 48 to 48.5 °C; that for `COC(=O)C(=COC(F)F)c1ccccc1CBr` was 63 to 67 °C. The value for `CCCCc1ccc(-c2nc3ccccc3[nH]2)nc1` was 138 to 139 °C; that for `O=C(OCCc1ccccc1)c1ccc2c(O)c(O)ccc2c1` was 164 to 166 °C. With `N#Cc1ccc(-c2cn(-c3ccc(C#N)cc3)c(SCc3ccccc3)n2)cc1`, the melting point was in the range of 168 to 172 °C.

With `Cc1cccc2c(C(F)(F)F)c(O)ccc12`, the melting point is 83 to 84 °C. To `O=C1C2=C(CCCC2)C(=O)N1c1ccc(Cl)c2c1CC(CBr)O2` (stereo not given) belongs 134 to 136 °C; to `COc1cc(-c2cc(O)c(SCc3ccccc3)c(=O)o2)cc(OC)c1OC`, 156 to 157 °C. To `Cc1cc(-n2ccnc2)c2cccc(OCc3c(Cl)ccc(S(=O)(=O)N4CCCC4)c3Cl)c2n1` belongs 193 °C. On to `Nc1nc(SCC2CC2)c2ncn(C3C=CC(CO)C3)c2n1` (stereo not given), for which the melting point was 125 to 127 °C.

`N#CCN1C(=O)COc2ccc([N+](=O)[O-])cc21`: the melting point amounted to 173 °C.

Consider `CNC(=NS(C)(=O)=O)NCCSCc1csc(CN(C)C)n1`, for which the melting point was 95 to 97 °C. The value for `O=C1c2cc(Cl)ccc2CN2CCC(=NO)C12` (stereo not given) was 130 to 136 °C; that for `O=C(C(=O)N1CCCCC1)C(Cl)Cl` was below 50 °C; that for `CC12CCC3C(CC=C4CCCCC43C)C1CC(O)C2=O` (stereo not given) was 168 to 172 °C. To `COC(=O)c1sc(-c2ccccc2)cc1N=NN(C)C` belongs 92 to 94 °C. To `COc1ccccc1C(=O)c1[nH]c2cc(Cl)ccc2c1CC(=O)O` belongs 214 to 217 °C; to `CCCc1c[nH]c(-c2ccnc(NC(=O)c3ccccc3)c2)n1`, 95 to 97 °C; to `CNCCCS(=O)(=O)CCCC(F)(F)C(F)(F)F`, 55 to 57 °C. In turn, `CC1(C)Cc2ccc(Cl)cc2C=[N+]1[O-]` displayed a melting point of 88 to 89 °C. The value for `COc1nc(NCCc2ccc(OC(F)F)cc2)nc(-c2ccc(Cl)c(C(C)(C)O)c2)n1` was 127 °C; that for `CN1C(=O)CN=C(c2ccccc2)c2cc(NO)ccc21` was 211 to 213 °C; that for `CN(C)Nc1cc(F)ccc1[N+](=O)[O-]` was 67 to 71 °C. The value for `O=S1(=O)NCN(C2CC2)c2cc(Br)cc(Br)c21` was 203 to 205 °C; that for `COC(=O)Cc1ccc(CNC(=O)[C@@H](CCCNC(N)=N[N+](=O)[O-])NC(=O)C(c2ccccc2)c2ccccc2)cc1` was 158 to 160 °C; that for `CCOC(=O)[C@@H]1CN(CC2=Cc3ccc(OC)cc32)CC[C@H]1O` (relative stereo) was 156 to 160 °C. To `Cc1[nH]c(C=O)c(C)c1CCC(=O)O` belongs 145 to 147 °C; to `COc1cc(C)c(OCCCC(C)(C)C(=O)O)cc1C`, 85 to 86 °C; to `O=C1c2ccccc2C(=O)N1c1ccc(Cl)cn1`, 153 to 155 °C. Compound `CC(C)(C)NC(=O)c1nn(-c2ccc(F)cc2F)c2c1CC1CC2C1(C)C` (stereo not given) came in with a melting point of 168 to 171 °C. The value for `CCCCCCNCCC(=O)O` was 95 to 97 °C; that for `CNC(CC(C)C)c1nc(-c2ccc3c(c2)Nc2ccccc2O3)cs1` (stereo not given) was 143 to 147 °C; that for `O=C1c2ccccc2C(=O)N1COc1ccc([N+](=O)[O-])cc1` was 145 to 148 °C. To `CCOC(=O)c1cn(-c2ccc(OC)cc2)c(-c2ccc(OC)cc2)n1` belongs 142 to 143 °C; to `CCc1nn2ccccc2c1-c1n[nH]c(=O)cc1C`, 216 to 217 °C; to `COc1ccc2c(C(=O)N(CC(=O)O)C(=O)N(C)C)cccc2c1C(F)(F)F`, 145 to 147 °C. To `O=C(O)CCCCCCCCCCn1c(-c2ccccc2)nc(-c2ccccc2)c1-c1ccccc1` belongs 76 to 78 °C. Take `NCC(=O)N(O)Cc1ccccc1`: the melting point lay in the range of 142 to 143 °C. For the compound `Nc1c(-c2ccc(-c3ccccc3)cc2)nc2c(Cl)cc(Cl)cc2c1C(=O)O`, the melting point was 244 to 245 °C.

Regarding `COc1c(-c2noc3ccsc23)ccc2c1O2`, the melting point was 88 to 90 °C. `Cc1oc(-c2ccccc2)nc1COc1cccc(/C=C/CO)c1` came in with a melting point of 118 to 119 °C.

For `COc1cccc(N(CCN2CCC(C(=O)c3ccc(F)cc3)CC2)C(=O)c2ccc(N)cc2)c1`, the melting point was 126 to 128 °C.

For `Cc1cc(OC(C)c2ccccc2)ccc1C(C)N(O)C(N)=O` (stereo not given), the melting point was 157 to 158 °C. In turn, `CCNS(=O)(=O)CC(=O)C1=CNC(C)=C(C(=O)OC)C1c1cccc([N+](=O)[O-])c1` (stereo not given) had a melting point of 185 to 187 °C.

`c1cn(-c2nc(N3CCOCC3)nc(-n3ccnc3)n2)cn1` came in with a melting point of 268 to 270 °C. To `COC1C(NC(=O)C(F)(F)F)CC(O)OC1C` (stereo not given) belongs 185 °C; to `COc1ccc(N2CCN(c3c(C)c(C)c4c(c3C)CC(C)(CN3CCC(=O)CC3)O4)CC2)cc1` (stereo not given), 123 to 127 °C. The value for `COC(=O)c1cccc(CN2C(=O)C(CCO)Oc3ccccc32)c1` (stereo not given) was 73 to 75 °C. The value for `CCCc1cc2c(c(C)c1O)CCO2` was 72 to 73 °C. `CCC(NC(=O)c1c(O)c(-c2ccccc2)nc2ccccc12)c1ccccc1` (single isomer, unassigned; (-)) showed a melting point of 122 to 125 °C.

Regarding `CCOC(=O)N1CCC(Nc2nc3ccccc3n2Cc2ccc(CO)o2)CC1`, the melting point lay within 138 to 140 °C.

`N#CC1C(=O)NC(=O)C(C(=O)OCc2ccccc2)C12CCCCC2` (stereo not given) displayed a melting point of 153 to 156 °C.
